These results are taken from US8648066B2 (Exelixis, Inc., priority 2009, dated 2014).

The target in one experiment is PI3Kα (Homo sapiens, UniProt P42336). The experiment in a line: PI3K biochemical assay (luciferase-luciferin ATP consumption). The following applies: 1.5 nM enzyme, 1 μM ATP, 10 μM PIP2; read-out: IC50 for PI3Kα in this assay. On the procedure:
PI3Kα activity is measured as the percent of ATP consumed following the kinase reaction using luciferase-luciferin-coupled chemiluminescence. Reactions were conducted in 384-well white, medium binding microtiter plates (Greiner). Kinase reactions were initiated by combining test compounds, ATP, substrate (PIP2), and kinase in a 20 μL volume in a buffer solution. The standard PI3Kalpha assay buffer is composed 50 mM Tris, pH 7.5, 1 mM EGTA, 10 mM MgCl2, 1 mM DTT and 0.03% CHAPS. The standard assay concentrations for enzyme, ATP, and substrate are 1.5 nM, 1 μM, and 10 μM, respectively. The reaction mixture was incubated at ambient temperature for approximately 2 h. Following the kinase reaction, a 10 μL aliquot of luciferase-luciferin mix (Promega Kinase-Glo) was added and the chemiluminescence signal measured using a Victor2 plate reader (Perkin Elmer). Total ATP consumption was limited to 40-60% and IC50 values of control compounds correlate well with literature references. Substituting PI3Kα with PI3Kβ, PI3Kγ, or PI3Kδ, the inhibitory activity of the compounds for the other isoforms of I3K were measured.

For another experiment, the target named is mTOR/GbL/Raptor (mTORC1) (Homo sapiens, UniProt P42345). The experiment in a line: mTOR/GbL/Raptor (mTORC1) ELISA assay. The format is biochemical. The following applies: phosphorylation of 4E-BP1; 0.2 nM mTORC1, 10 μM ATP; read-out: IC50 in this assay (mTORC1 ELISA). Summed up:
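Human mTORC1 (0.2 nM) phosphorylated 50 nM His-tagged 4E-BP1 with 10 µM ATP in HEPES pH 7.2 containing 10 mM MnCl2, 120 min at ambient temperature. Substrate was captured on Ni-chelate plates; phospho-4E-BP1 was detected by primary antibody and HRP secondary with luminescence.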
A general note: An ELISA detects its analyte on a solid surface through an enzyme-linked reagent.

By IC50 is commonly meant the point on the concentration scale where inhibition reaches its midpoint.

PI3Kα, sequence (P42336 whole entry, species assumed): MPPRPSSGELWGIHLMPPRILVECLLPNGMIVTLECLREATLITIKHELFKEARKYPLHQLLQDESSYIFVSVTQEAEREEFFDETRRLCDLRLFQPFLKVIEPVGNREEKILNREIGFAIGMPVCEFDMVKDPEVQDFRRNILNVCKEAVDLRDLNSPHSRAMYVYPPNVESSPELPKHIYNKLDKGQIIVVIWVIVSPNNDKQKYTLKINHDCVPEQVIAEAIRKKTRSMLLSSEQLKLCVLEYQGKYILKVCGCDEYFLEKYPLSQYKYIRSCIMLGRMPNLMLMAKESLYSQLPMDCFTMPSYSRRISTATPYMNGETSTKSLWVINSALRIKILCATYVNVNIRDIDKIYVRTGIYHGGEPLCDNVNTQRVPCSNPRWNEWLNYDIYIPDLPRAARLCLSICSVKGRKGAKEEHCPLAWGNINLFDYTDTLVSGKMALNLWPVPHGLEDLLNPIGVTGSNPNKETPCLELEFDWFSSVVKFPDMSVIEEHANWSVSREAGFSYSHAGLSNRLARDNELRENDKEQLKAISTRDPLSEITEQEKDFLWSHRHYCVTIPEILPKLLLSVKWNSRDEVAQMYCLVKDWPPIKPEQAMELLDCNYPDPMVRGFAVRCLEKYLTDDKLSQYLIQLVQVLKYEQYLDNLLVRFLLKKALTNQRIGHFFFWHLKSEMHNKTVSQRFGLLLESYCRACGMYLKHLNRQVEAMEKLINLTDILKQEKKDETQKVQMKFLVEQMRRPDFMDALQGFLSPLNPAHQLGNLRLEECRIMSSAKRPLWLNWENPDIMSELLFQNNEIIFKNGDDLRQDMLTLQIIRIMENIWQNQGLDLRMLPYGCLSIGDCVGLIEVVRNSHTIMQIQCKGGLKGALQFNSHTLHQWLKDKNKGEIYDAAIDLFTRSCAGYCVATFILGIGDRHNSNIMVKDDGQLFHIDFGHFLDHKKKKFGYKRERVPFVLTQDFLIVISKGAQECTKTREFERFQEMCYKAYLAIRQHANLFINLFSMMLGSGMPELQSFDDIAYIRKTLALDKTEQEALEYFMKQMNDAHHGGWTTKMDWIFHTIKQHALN
PI3Kα, sequence (P27986 whole entry partner, species assumed): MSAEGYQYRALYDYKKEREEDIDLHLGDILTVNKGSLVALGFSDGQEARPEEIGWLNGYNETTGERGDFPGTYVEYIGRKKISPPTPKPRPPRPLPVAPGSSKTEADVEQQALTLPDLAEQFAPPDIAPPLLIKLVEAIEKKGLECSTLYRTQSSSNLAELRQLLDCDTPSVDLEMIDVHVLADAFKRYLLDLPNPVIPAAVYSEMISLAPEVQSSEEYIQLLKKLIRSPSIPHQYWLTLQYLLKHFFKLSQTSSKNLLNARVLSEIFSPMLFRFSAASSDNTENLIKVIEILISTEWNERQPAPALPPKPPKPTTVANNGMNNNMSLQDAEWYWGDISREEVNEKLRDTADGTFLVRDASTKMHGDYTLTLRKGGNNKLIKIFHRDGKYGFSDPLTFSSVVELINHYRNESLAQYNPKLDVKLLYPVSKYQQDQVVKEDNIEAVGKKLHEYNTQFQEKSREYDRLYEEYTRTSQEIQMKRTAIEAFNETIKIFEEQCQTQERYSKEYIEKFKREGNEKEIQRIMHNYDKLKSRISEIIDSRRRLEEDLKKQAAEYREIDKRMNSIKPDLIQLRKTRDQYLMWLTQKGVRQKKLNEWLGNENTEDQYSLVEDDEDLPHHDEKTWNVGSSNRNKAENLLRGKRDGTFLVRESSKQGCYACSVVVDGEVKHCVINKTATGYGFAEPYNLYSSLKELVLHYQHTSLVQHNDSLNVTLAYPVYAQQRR

On to `Cc1nc2ccc(-c3ccc4c(c3)CN(c3ncnc(Cc5ccccc5)c3C)CCO4)cc2[nH]1` [Example 41, 7-(2-methyl-1H-benzimidazol-6-yl)-4-[5-methyl-6-(phenylmethyl)pyrimidin-4-yl]-2,3,4,5-tetrahydro-1,4-benzoxazepine], for which the IC50 on PI3Kα was 1000 to 2000 nM; on mTOR/GbL/Raptor (mTORC1) it was 250 to 1000 nM.
The matching figures for `Cc1nc2ccc(-c3ccc4c(c3)CN(c3ncnc5[nH]ncc35)CCO4)cc2[nH]1` [Example 52, 7-(2-methyl-1H-benzimidazol-6-yl)-4-(1H-pyrazolo[3,4-d]pyrimidin-4-yl)-2,3,4,5-tetrahydro-1,4-benzoxazepine]: at least 2000 nM and 1000 to 2000 nM.
For `Cc1nc2ccc(-c3ccc4c(c3)CN(c3nc(SCc5ccccc5)nc5c3CCC5)CCO4)cc2[nH]1` [Example 53, 7-(2-methyl-1H-benzimidazol-6-yl)-4-{2-[(phenylmethyl)thio]-6,7-dihydro-5H-cyclopenta[d]pyrimidin-4-yl}-2,3,4,5-tetrahydro-1,4-benzoxazepine], in that order: at least 2000 nM and 250 to 1000 nM.
`Cc1nc2ccc(-c3ccc4c(c3)CN(c3ncnc(C)c3CC(C)C)CCO4)cc2[nH]1` [Example 67, 7-(2-methyl-1H-benzimidazol-6-yl)-4-[6-methyl-5-(2-methylpropyl)pyrimidin-4-yl]-2,3,4,5-tetrahydro-1,4-benzoxazepine]: the values for the IC50 on PI3Kα and at mTOR/GbL/Raptor (mTORC1) were 1000 to 2000 nM and 250 to 1000 nM, respectively.
For `CSc1nc2c(c(N3CCOc4ccc(-c5ccc6nc(C)[nH]c6c5)cc4C3)n1)CC(C)C2` (stereo not drawn) [Example 71, 7-(2-methyl-1H-benzimidazol-6-yl)-4-[6-methyl-2-(methylthio)-6,7-dihydro-5H-cyclopenta[d]pyrimidin-4-yl]-2,3,4,5-tetrahydro-1,4-benzoxazepine], in that order: 1000 to 2000 nM and 1000 to 2000 nM.
For `Cc1nc2ccc(-c3ccc4c(c3)CN(c3ncnc5c3CSC5)CCO4)cc2[nH]1` [Example 75, 4-(5,7-dihydrothieno[3,4-d]pyrimidin-4-yl)-7-(2-methyl-1H-benzimidazol-6-yl)-2,3,4,5-tetrahydro-1,4-benzoxazepine], in that order: 1000 to 2000 nM and 250 to 1000 nM.
The matching figures for `Cc1nccc(N2CCOc3ccc(-c4cnc5nc(C)[nH]c5c4)cc3C2)n1` [Example 85, 7-(2-methyl-1H-imidazo[4,5-b]pyridin-6-yl)-4-(2-methylpyrimidin-4-yl)-2,3,4,5-tetrahydro-1,4-benzoxazepine]: 1000 to 2000 nM and 50 to 250 nM.
In the case of `Cc1nc2ccc(-c3ccc4c(c3)CN(c3ncnc5c3CN(C3CC3)C5)CCO4)cc2[nH]1` [Example 87, 4-(6-cyclopropyl-6,7-dihydro-5H-pyrrolo[3,4-d]pyrimidin-4-yl)-7-(2-methyl-1H-benzimidazol-6-yl)-2,3,4,5-tetrahydro-1,4-benzoxazepine], the IC50 at PI3Kα was at least 2000 nM; on mTOR/GbL/Raptor (mTORC1) it was 250 to 1000 nM.
Regarding `Cc1ccc(N2Cc3ncnc(N4CCOc5ccc(-c6ccc7nc(C)[nH]c7c6)cc5C4)c3C2)cc1` [Example 88, 7-(2-methyl-1H-benzimidazol-6-yl)-4-[6-(4-methylphenyl)-6,7-dihydro-5H-pyrrolo[3,4-d]pyrimidin-4-yl]-2,3,4,5-tetrahydro-1,4-benzoxazepine], the figures for the IC50 at PI3Kα and at mTOR/GbL/Raptor (mTORC1) were at least 2000 nM and 1000 to 2000 nM, respectively.
For `Cc1nc2ccc(-c3ccc4c(c3)CN(c3ccccn3)CCO4)cc2[nH]1` [Example 104, 7-(2-methyl-1H-benzimidazol-6-yl)-4-pyridin-2-yl-2,3,4,5-tetrahydro-1,4-benzoxazepine], in that order: at least 2000 nM and at least 2000 nM.
Consider `Cc1nc2ccc(-c3ccc4c(c3)CN(c3ncccn3)CCO4)cc2[nH]1` [Example 106, 7-(2-methyl-1H-benzimidazol-6-yl)-4-pyrimidin-2-yl-2,3,4,5-tetrahydro-1,4-benzoxazepine], for which the IC50 at PI3Kα and at mTOR/GbL/Raptor (mTORC1) was 1000 to 2000 nM each time.
Turning to `COCCOC(=O)Nc1nc2ccc(-c3ccc4c(c3)CN(c3ccnc5ccccc35)CCO4)cc2[nH]1` [Example 118, 2-(methyloxy)ethyl [6-(4-quinolin-4-yl-2,3,4,5-tetrahydro-1,4-benzoxazepin-7-yl)-1H-benzimidazol-2-yl]carbamate], at PI3Kα, the 50% inhibitory concentration (IC50) lay within 1000 to 2000 nM.
Regarding `Cn1ncc2cc(-c3ccc4c(c3)CN(c3ccnc5ccccc35)CCO4)ccc21` [Example 139, 7-(1-methyl-1H-indazol-5-yl)-4-quinolin-4-yl-2,3,4,5-tetrahydro-1,4-benzoxazepine], the IC50 on PI3Kα fell in the range of 1000 to 2000 nM.
Regarding `CNC(=O)c1cccc(-c2ccc3c(c2)CN(c2nc(C)nc4cc(OC)ccc24)CCO3)c1` [Example 644, N-methyl-3-{4-[2-methyl-7-(methyloxy)quinazolin-4-yl]-2,3,4,5-tetrahydro-1,4-benzoxazepin-7-yl}benzamide], the IC50 on PI3Kα is at least 2000 nM.
Same read-out and setting: next, `CC[C@H]1CCc2c(nc(C)nc2N2CCOc3ccc(-c4cnc5nc([C@H](C)NC(=O)OCc6ccccc6)[nH]c5c4)cc3C2)C1` [Example 646, phenylmethyl [(1S)-1-(6-{4-[(7S)-7-ethyl-2-methyl-5,6,7,8-tetrahydroquinazolin-4-yl]-2,3,4,5-tetrahydro-1,4-benzoxazepin-7-yl}-1H-imidazo[4,5-b]pyridin-2-yl)ethyl]carbamate]: 1000 to 2000 nM.
Consider `Cc1nc(CN(C)C)nc(N2CCOc3ccc(-c4cnc5sc(N)nc5c4)cc3C2)c1-c1ccccc1` [Example 682, 6-(4-{2-[(dimethylamino)methyl]-6-methyl-5-phenylpyrimidin-4-yl}-2,3,4,5-tetrahydro-1,4-benzoxazepin-7-yl)[1,3]thiazolo[5,4-b]pyridin-2-amine], for which the IC50 at mTOR/GbL/Raptor (mTORC1) lay within 10 to 50 nM.
On the same count and under the same terms, the same measure for `Cc1nc2cc(-c3ccc4c(c3)CN(c3nc(NCCN(C)C)nc(C)c3Cc3ccc(F)cc3)CCO4)ccc2[nH]1` [Example 683, N′-{5-[(4-fluorophenyl)methyl]-4-methyl-6-[7-(2-methyl-1H-benzimidazol-5-yl)-2,3-dihydro-1,4-benzoxazepin-4(5H)-yl]pyrimidin-2-yl}-N,N-dimethylethane-1,2-diamine]: 10 to 50 nM; for `CC1(C)CCc2nc(CC#N)nc(N3CCOc4ccc(-c5cnc6sc(N)nc6c5)cc4C3)c2C1` [Example 684, {4-[7-(2-amino[1,3]thiazolo[5,4-b]pyridin-6-yl)-2,3-dihydro-1,4-benzoxazepin-4(5H)-yl]-6,6-dimethyl-5,6,7,8-tetrahydroquinazolin-2-yl}acetonitrile]: at most 10 nM; for `CCN(CC)Cc1nc(C)c(C(C)C)c(N2CCOc3ccc(-c4ccc5nc(C)[nH]c5c4)cc3C2)n1` [Example 685, N-ethyl-N-({4-methyl-6-[7-(2-methyl-1H-benzimidazol-5-yl)-2,3-dihydro-1,4-benzoxazepin-4(5H)-yl]-5-(1-methylethyl)pyrimidin-2-yl}methyl)ethanamine]: 50 to 250 nM.
Same read-out and setting: the same measure for `CC(=O)OCc1nc(C)c(C(C)C)c(N2CCOc3ccc(-c4ccc5nc(C)[nH]c5c4)cc3C2)n1` [Example 686, {4-methyl-6-[7-(2-methyl-1H-benzimidazol-5-yl)-2,3-dihydro-1,4-benzoxazepin-4(5H)-yl]-5-(1-methylethyl)pyrimidin-2-yl}methyl acetate]: 10 to 50 nM.
The same measure, in the same setting: next, `Cc1nc2ccc(-c3ccc4c(c3)CN(c3nc(CO)nc(C)c3C(C)C)CCO4)cc2[nH]1` [Example 687, {4-methyl-6-[7-(2-methyl-1H-benzimidazol-5-yl)-2,3-dihydro-1,4-benzoxazepin-4(5H)-yl]-5-(1-methylethyl)pyrimidin-2-yl}methanol]: at most 10 nM; `Cc1nc(N)nc(N2CCOc3ccc(-c4cnc5[nH]cnc5c4)cc3C2)c1Cc1ccc(F)cc1` [Example 689, 5-[(4-fluorophenyl)methyl]-4-[7-(3H-imidazo[4,5-b]pyridin-6-yl)-2,3-dihydro-1,4-benzoxazepin-4(5H)-yl]-6-methylpyrimidin-2-amine]: at most 10 nM; `Cc1nc2cc(-c3ccc4c(c3)CN(c3nc(N)nc(C)c3Cc3ccc(F)cc3)CCO4)cnc2[nH]1` [Example 690, 5-[(4-fluorophenyl)methyl]-4-methyl-6-[7-(2-methyl-3H-imidazo[4,5-b]pyridin-6-yl)-2,3-dihydro-1,4-benzoxazepin-4(5H)-yl]pyrimidin-2-amine]: at most 10 nM.
Take `COc1ccc2c(N3CCOc4ccc(-c5cnc6[nH]cnc6c5)cc4C3)nc(CN(C)C)nc2c1` [Example 691, 1-{4-[7-(3H-imidazo[4,5-b]pyridin-6-yl)-2,3-dihydro-1,4-benzoxazepin-4(5H)-yl]-7-(methyloxy)quinazolin-2-yl}-N,N-dimethylmethanamine]: the IC50 at mTOR/GbL/Raptor (mTORC1) lay in the range of 1000 to 2000 nM.
`Cc1nc(N)nc(N2CCOc3ccc(-c4cnc5sc(N)nc5c4)cc3C2)c1Cc1ccc(F)cc1` [Example 692, 6-(4-{2-amino-5-[(4-fluorophenyl)methyl]-6-methylpyrimidin-4-yl}-2,3,4,5-tetrahydro-1,4-benzoxazepin-7-yl)[1,3]thiazolo[5,4-b]pyridin-2-amine]: the half-inhibitory concentration (IC50) at mTOR/GbL/Raptor (mTORC1) was at most 10 nM.
